The source of these data is ChEMBL document CHEMBL1201862, “PubChem BioAssay data set” (2004).

Experiment [1] has as its target Short transient receptor potential channel 6 (Mus musculus, UniProt Q61143). In words: TRPC6 inhibition potency of TRPC4 inhibitor analogs, dose response, selectivity assay for selective TRPC4 inhibitor project, HEK293 cells, membrane potential dye, IC50 (AID 492987). The class given is functional, cell-based.
The target of experiment [2] is T1, Short transient receptor potential channel 4 (Mus musculus, UniProt Q9QUQ5).
T1 sequence (Q9QUQ5 whole entry): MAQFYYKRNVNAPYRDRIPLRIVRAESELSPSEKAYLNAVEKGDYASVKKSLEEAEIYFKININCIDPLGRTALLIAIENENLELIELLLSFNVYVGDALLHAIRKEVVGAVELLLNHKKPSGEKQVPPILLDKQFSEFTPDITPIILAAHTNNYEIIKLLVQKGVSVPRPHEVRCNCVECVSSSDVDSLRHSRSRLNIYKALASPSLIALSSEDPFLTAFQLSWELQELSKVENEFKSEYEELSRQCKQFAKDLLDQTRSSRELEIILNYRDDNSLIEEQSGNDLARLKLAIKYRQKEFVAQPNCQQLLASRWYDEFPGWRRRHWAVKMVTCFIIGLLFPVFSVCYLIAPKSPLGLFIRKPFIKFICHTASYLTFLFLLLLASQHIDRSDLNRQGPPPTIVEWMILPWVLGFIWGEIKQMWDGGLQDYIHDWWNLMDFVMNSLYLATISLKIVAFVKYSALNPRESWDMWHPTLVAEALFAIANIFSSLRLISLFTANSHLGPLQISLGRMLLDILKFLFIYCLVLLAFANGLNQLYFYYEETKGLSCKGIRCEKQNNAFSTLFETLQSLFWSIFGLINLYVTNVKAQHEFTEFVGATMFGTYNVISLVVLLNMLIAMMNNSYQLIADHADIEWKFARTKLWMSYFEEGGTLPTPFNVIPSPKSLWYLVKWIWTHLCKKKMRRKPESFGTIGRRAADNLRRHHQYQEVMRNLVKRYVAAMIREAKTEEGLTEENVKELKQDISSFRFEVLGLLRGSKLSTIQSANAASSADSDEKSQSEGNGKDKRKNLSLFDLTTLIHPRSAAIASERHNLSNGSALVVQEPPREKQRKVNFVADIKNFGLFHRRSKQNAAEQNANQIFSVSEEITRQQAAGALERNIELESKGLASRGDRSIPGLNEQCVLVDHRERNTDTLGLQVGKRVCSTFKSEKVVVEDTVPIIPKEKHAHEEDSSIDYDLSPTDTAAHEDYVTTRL
The experiment in a line: SAR Analysis for the identification of selective inhibitors of the transient receptor potential cation channel C4 (TRPC4): TRPC4 Serotonin Receptor CRC MPD assay. [Related pubchem assays (depositor defined):AID2247, AID2256]. The class given is functional.

The target of experiment [3] is T1, Short transient receptor potential channel 4. In words: TRPC4 inhibitor concentration-response, dose response, cell-based, HEK293 TRPC4/mu-opioid, DAMGO stimulus, Fluo-4 (AID 492994). The class given is functional.
Experiment [4] has the same target. In words: SAR Analysis for the identification of selective inhibits of the transient receptor potential cation channel C4 (TRPC4): Automated Electrophysiology_2. [Related pubchem assays (depositor defined):AID2256]. Format: functional.
Experiment [5] has the same target. The experiment in a line: TRPC4 inhibition under acetylcholine activation, SAR follow-up, cell-based, acetylcholine stimulus, HEK293 TRPC4, Fluo-4 (AID 492996). Format: functional.
The next experiment relates to CHO-K1. The experiment in a line: Counterscreen for antagonists of the orexin 1 receptor (OX1R; HCRTR1): Homogeneous time resolved fluorescence (HTRF)-based cell-based dose response assay to identify antagonists of the parental CHO-K1 cell line. [Related pubchem assays (depositor defined):AID434989, AID435008, AID463079, AID485270, AID492963, AID492964, AID492965, AID493232, AID504699, AID504701]. Format: functional. Conditions: Cricetulus griseus. A general note: The purpose of a counterscreen is to sort out artefacts and off-target activity.

Experiment [6] concerns the target T2, Orexin/Hypocretin receptor type 1 (Homo sapiens, UniProt O43613). In words: Fluorescence-based cell-based high throughput dose response assay for antagonists of the orexin 1 receptor (OX1R; HCRTR1). [Related pubchem assays (depositor defined):AID434989, AID435008, AID463079, AID485270, AID492963, AID492964, AID492965, AID493232, AID504717, AID504718]. The class given is functional.

The target in experiment [7] is T3, Orexin receptor type 2 (Homo sapiens, UniProt O43614). In words: Counterscreen assay for antagonists of the orexin 1 receptor (OX1R; HCRTR1): Fluorescence-based cell-based dose response assay for antagonists of the orexin 2 receptor (OX2R; HCRTR2), run by assay provider. The class given is functional.
For experiment [8], the target named is T3, Orexin receptor type 2. The experiment in a line: Counterscreen assay for antagonists of the orexin 1 receptor (OX1R; HCRTR1): Homogeneous Time Resolved Fluorescence (HTRF)-based cell-based dose response assay for antagonists of the orexin 2 receptor (OX2R; HCRTR2), run by assay provider. Format: functional.
The target in experiment [9] is T2, Orexin/Hypocretin receptor type 1. In words: Homogeneous Time Resolved Fluorescence (HTRF)-based cell-based high throughput dose response assay for antagonists of the orexin 1 receptor (OX1R; HCRTR1). [Related pubchem assays (depositor defined):AID434989, AID435008, AID463079, AID485270, AID492963, AID492964, AID492965, AID493232, AID504717, AID504718]. Format: functional. Background: Time-resolved FRET reads energy transfer from a long-lived donor to a nearby acceptor.

The nature of experiment [10]: Counterscreen for antagonists of the orexin 1 receptor (OX1R; HCRTR1): Fluorescence-based cell-based high throughput dose response assay to identify antagonists of the parental CHO cell line. [Related pubchem assays (depositor defined):AID434989, AID435008, AID463079, AID485270, AID492963, AID492964, AID492965, AID493232, AID504699, AID504701]. Format: functional.

The target of a further experiment is Major prion protein (Homo sapiens, UniProt P04156). Format: functional, cell-based.
In experiment [11] the target is Bifunctional protein GlmU (Mycobacterium tuberculosis, UniProt P9WMN3). The experiment in a line: Inhibitors of Mycobacterial Glucosamine-1-phosphate acetyl transferase (GlmU). Secondary screen. The arrangement: species or system Mycobacterium tuberculosis H37Rv.
Experiment [12] concerns Vero. The experiment in a line: cells. Format: functional, cell-based. Conditions: Chlorocebus sabaeus.
In experiment [13] the test system is Vero. The experiment in a line: cells. The class given is functional. Conditions: Chlorocebus sabaeus.
In experiment [14] the test system is Vero. In words: Vero cell cytotoxicity, cytotoxicity control for flavivirus capping enzyme inhibitors (AID 588742). The class given is functional. Conditions: Chlorocebus sabaeus.
The target of the next experiment is Genome polyprotein (dengue virus type 2, UniProt P29990). In words: Dengue-2 NS5 methyltransferase inhibitors, primary screen, biochemical, confirmation dose response (AID 588689). Format: functional.
A further experiment addresses Phospholipase D2 (Homo sapiens, UniProt O14939). In words: PLD2 inhibitor potency in cells, dose response (AID 602147).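 Further: cellular assay in HEK293 cells overexpressing GFP-tagged PLD2.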 The class given is functional.
Another experiment concerns the target Phospholipase D1 (Homo sapiens, UniProt Q13393). The experiment in a line: PLD1 inhibitor potency in cells, dose response (AID 602151).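 Further: cellular PLD1 assay in Calu-1 cells stimulated with PMA.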 The class given is functional.

The source made the active and inactive calls. Some results are limits rather than exact numbers.

For the molecule `Cc1cc(N2CCCC2)nc2ccc(F)cc12`, the IC50 in experiment [1] was 7.76 µM (active); in experiment [2], 1.41 µM (active); in experiment [3], 0.93 µM (active); in experiment [4] it was 3.94 µM (active); in experiment [5] it was 17.4 µM (active).
For the molecule `N#CCSc1nc(-c2ccccc2)nc2ccccc12`, the IC50 with CHO-K1 is > 66.3 µM (inactive); in [6], > 49.8 µM (inactive); on Orexin receptor type 2 [7] it was > 88.8 µM (inactive); at Orexin receptor type 2 [8], > 50 µM (inactive); in experiment [9], 2.84 µM (active); in experiment [10] it was > 49.8 µM (inactive).
On to `O=c1oc2ccccc2c(O)c1[C@H]1c2ccc(O)cc2Oc2c1c(=O)oc1ccccc21`, for which the IC50 at Major prion protein was 9.01 µM (active); in the experiment “cells”, 124 µM (inactive); in experiment [11], 117 µM (active); in the experiment with Vero [12], > 25 µM (active); at Genome polyprotein, 80.7 µM (active). Also, the CC50 in the experiment with Vero [13] was > 25 µM (active); in the experiment on Vero [14], > 40 µM (active).
For `C[C@@H](CN1CCC(n2c(=O)[nH]c3ccccc32)CC1)NC(=O)c1ccc2ncccc2c1`, the IC50 on Phospholipase D2 is 4.1 µM (active); on Phospholipase D1 it was 0.017 µM (active).

One may read the IC50 as the concentration that inhibits the measured activity by half. As a reminder, the CC50 is the concentration giving 50% cytotoxicity.
